Data as given in patent publication US20070128217A1 (priority 2003, published 2007).

Experiments:
[1] = system: rabbit serum obtained by immunizing a rabbit with the SARS-CoV strain Frankfurt 1; assay type: binding; parameters: Binding of a rabbit serum to linear peptides / Binding of a rabbit serum to looped peptides / Rabbit serum linear peptides / Rabbit serum looped peptides / Binding of a rabbit serum to linear peptides of protein N of SARS-CoV Urbani (Rabbit serum linear peptides) / Binding of a rabbit serum to looped/cyclic peptides of protein N of SARS-CoV Urbani (Rabbit serum looped peptides): unit not given here
[2] = system: control sera (pooled serum of ten healthy LUMC hospital workers; commercial negative donor pooled serum from the Dutch bloodbank); assay type: binding, human; parameters: Binding of Control serum LUMC to linear peptides / Binding of Control serum Blood-bank to linear peptides / Binding of Control serum LUMC to looped peptides / Binding of Control Serum Blood-Bank to Looped peptides / Binding of Control serum LUMC to linear peptides of the protein M of SARS-CoV Urbani / Binding of Control serum Blood-bank to linear peptides of the protein M of SARS-CoV Urbani / Binding of Control serum LUMC to looped peptides of the protein M of SARS-CoV Urbani / Binding of Control Serum Blood-Bank to Looped peptides of the protein M of SARS-CoV Urbani: unit not given here
[3] = system: antibodies in sera from SARS patients (sera 1a, 1b, 2, 6, 37, 62, London, SARS-yellow, SARS-green); assay type: binding, human; parameters: Binding of serum 6 to linear peptides of protein X1 of SARS-CoV Urbani / Binding of serum 37 to linear peptides of protein X1 of SARS-CoV Urbani / Binding of serum 6 to looped/cyclic peptide (PEPSCAN-ELISA) / Binding of serum 37 to looped/cyclic peptide (PEPSCAN-ELISA) / Binding of serum 37 to looped/cyclic peptides of protein X1 of SARS-CoV Urbani / Binding of serum 6 to linear peptides of protein X2 / Binding of serum 37 to linear peptides of protein X2 / Binding of serum 37 to looped/cyclic peptides of protein X2 of SARS-CoV Urbani / Binding of serum 6 to linear peptides of protein M of SARS-CoV Urbani / Binding of serum 37 to linear peptides of protein M of SARS-CoV Urbani / Binding of serum 6 to looped/cyclic peptides of protein M of SARS-CoV Urbani / Binding of serum 37 to looped/cyclic peptides of protein M of SARS-CoV Urbani / Binding of serum 6 to linear peptides of protein X3 of SARS-CoV Urbani / Binding of serum 37 to linear peptides of protein X3 of SARS-CoV Urbani / Binding of serum 37 to looped/cyclic peptides of protein X3 of SARS-CoV Urbani / Binding of serum 6 to linear peptides of protein X4 of SARS-CoV Urbani / Binding of serum 37 to linear peptides of protein X4 of SARS-CoV Urbani / Binding of serum 37 to looped/cyclic peptides of protein X4 of SARS-CoV Urbani / Binding of serum 6 to linear peptides of protein X5 of SARS-CoV Urbani / Binding of serum 37 to linear peptides of protein X5 of SARS-CoV Urbani / Binding of serum 37 to looped/cyclic peptides of protein X5 of SARS-CoV Urbani / Binding of serum 6 to linear peptides of protein N of SARS-CoV Urbani / Binding of serum 37 to linear peptides of protein N of SARS-CoV Urbani / Binding of serum 6 to linear peptide (PEPSCAN-ELISA) / Binding of serum 1a to looped/cyclic peptides of protein N of SARS-CoV Urbani / Binding of serum 1b to looped/cyclic peptides of protein N of SARS-CoV Urbani / Binding of serum 2 to looped/cyclic peptides of protein N of SARS-CoV Urbani / Binding of serum 6 to looped/cyclic peptides of protein N of SARS-CoV Urbani / Binding of serum 37 to looped/cyclic peptides of protein N of SARS-CoV Urbani / Binding of serum 62 to looped/cyclic peptides of protein N of SARS-CoV Urbani / Binding of serum London to looped/cyclic peptides of protein N of SARS-CoV Urbani / Binding of serum SARS-green to looped/cyclic peptides of protein N of SARS-CoV Urbani: unit not given here

STQITTDTGIENATF
Binding of a rabbit serum to linear peptides [1]: 0.1
Binding of a rabbit serum to looped peptides [1]: 0.7
Binding of Control Serum Blood-Bank to Looped peptides [2]: 0.5
Binding of Control serum Blood-bank to linear peptides [2]: 0.5
Binding of Control serum LUMC to linear peptides [2]: 0.6
Binding of Control serum LUMC to looped peptides [2]: 0.6
Binding of serum 1a to linear peptides of protein X1 of SARS-CoV Urbani [3]: 0.5
Binding of serum 1a to looped/cyclic peptides of protein X1 of SARS-CoV Urbani [3]: 0.6
Binding of serum 1b to linear peptides of protein X1 of SARS-CoV Urbani [3]: 0.4
Binding of serum 1b to looped/cyclic peptides of protein X1 of SARS-CoV Urbani [3]: 0.4
Binding of serum 2 to linear peptides of protein X1 of SARS-CoV Urbani [3]: 0.4
Binding of serum 2 to looped/cyclic peptides of protein X1 of SARS-CoV Urbani [3]: 0.3
Binding of serum 6 to linear peptides of protein X1 of SARS-CoV Urbani [3]: 0.5
Binding of serum 6 to looped/cyclic peptides of protein X1 of SARS-CoV Urbani [3]: 0.3
Binding of serum 37 to linear peptides of protein X1 of SARS-CoV Urbani [3]: 0.6
Binding of serum 37 to looped/cyclic peptides of protein X1 of SARS-CoV Urbani [3]: 0.6
Binding of serum 62 to linear peptides of protein X1 of SARS-CoV Urbani [3]: 0.4
Binding of serum 62 to looped/cyclic peptides of protein X1 of SARS-CoV Urbani [3]: 0.6
Binding of serum London to linear peptides of protein X1 of SARS-CoV Urbani [3]: 0.2
Binding of serum London to looped/cyclic peptides of protein X1 of SARS-CoV Urbani [3]: 0.2
Binding of serum SARS-green to linear peptides of protein X1 of SARS-CoV Urbani [3]: 0.3
Binding of serum SARS-green to looped/cyclic peptides of protein X1 of SARS-CoV Urbani [3]: 0.4
Binding of serum SARS-yellow to linear peptides of protein X1 of SARS-CoV Urbani [3]: 0.2
Binding of serum SARS-yellow to looped/cyclic peptides of protein X1 of SARS-CoV Urbani [3]: 0.4

SYFVASFRLFARTRS
Rabbit serum linear peptides [1]: 0.2
Rabbit serum looped peptides [1]: 0.4
Binding of Control Serum Blood-Bank to Looped peptides of the protein M of SARS-CoV Urbani [2]: 1.0
Binding of Control serum Blood-bank to linear peptides of the protein M of SARS-CoV Urbani [2]: 0.6
Binding of Control serum LUMC to linear peptides of the protein M of SARS-CoV Urbani [2]: 0.5
Binding of Control serum LUMC to looped peptides of the protein M of SARS-CoV Urbani [2]: 0.9
Binding of serum 1a to linear peptides of protein M of SARS-CoV Urbani [3]: 0.7
Binding of serum 1b to linear peptides of protein M of SARS-CoV Urbani [3]: 0.6
Binding of serum 2 to linear peptides of protein M of SARS-CoV Urbani [3]: 0.5
Binding of serum 6 to linear peptides of protein M of SARS-CoV Urbani [3]: 0.5
Binding of serum 37 to linear peptides of protein M of SARS-CoV Urbani [3]: 0.4
Binding of serum 62 to linear peptides of protein M of SARS-CoV Urbani [3]: 0.4
Binding of serum London to linear peptides of protein M of SARS-CoV Urbani [3]: 0.3
Binding of serum SARS-green to linear peptides of protein M of SARS-CoV Urbani [3]: 0.4
Binding of serum SARS-yellow to linear peptides of protein M of SARS-CoV Urbani [3]: 0.1
Recognition of the peptide by sera of SARS-CoV infected individuals, and form (linear, looped/cyclic) in which it is recognized [3]: recognized in looped/cyclic form

TAAFRDVLVVLNKRT
Rabbit serum linear peptides [1]: 0.3
Rabbit serum looped peptides [1]: 0.4
Binding of Control Serum Blood-Bank to Looped peptides [2]: 0.8
Binding of Control serum Blood-bank to linear peptides [2]: 0.7
Binding of Control serum LUMC to linear peptides [2]: 0.8
Binding of Control serum LUMC to looped peptides [2]: 0.6
Binding of serum 1a to linear peptides of protein X5 of SARS-CoV Urbani [3]: 0.5
Binding of serum 1a to looped/cyclic peptides of protein X5 of SARS-CoV Urbani [3]: 0.7
Binding of serum 1b to linear peptides of protein X5 of SARS-CoV Urbani [3]: 0.6
Binding of serum 1b to looped/cyclic peptides of protein X5 of SARS-CoV Urbani [3]: 0.6
Binding of serum 2 to linear peptides of protein X5 of SARS-CoV Urbani [3]: 0.6
Binding of serum 2 to looped/cyclic peptides of protein X5 of SARS-CoV Urbani [3]: 0.7
Binding of serum 6 to linear peptides of protein X5 of SARS-CoV Urbani [3]: 0.6
Binding of serum 6 to looped/cyclic peptides of protein X5 of SARS-CoV Urbani [3]: 0.9
Binding of serum 37 to linear peptides of protein X5 of SARS-CoV Urbani [3]: 0.5
Binding of serum 37 to looped/cyclic peptides of protein X5 of SARS-CoV Urbani [3]: 0.6
Binding of serum 62 to linear peptides of protein X5 of SARS-CoV Urbani [3]: 0.5
Binding of serum 62 to looped/cyclic peptides of protein X5 of SARS-CoV Urbani [3]: 0.6
Binding of serum London to linear peptides of protein X5 of SARS-CoV Urbani [3]: 0.5
Binding of serum London to looped/cyclic peptides of protein X5 of SARS-CoV Urbani [3]: 1.1
Binding of serum SARS-green to linear peptides of protein X5 of SARS-CoV Urbani [3]: 0.2
Binding of serum SARS-green to looped/cyclic peptides of protein X5 of SARS-CoV Urbani [3]: 0.5
Binding of serum SARS-yellow to linear peptides of protein X5 of SARS-CoV Urbani [3]: 0.7
Binding of serum SARS-yellow to looped/cyclic peptides of protein X5 of SARS-CoV Urbani [3]: 0.5
